Key:
[1] = Additional toxicity study, subcutaneous twice a day for 10 days; assay type: in vivo; conditions: mice
Procedure: An additional toxicity study was performed by injecting mice subcutaneously twice a day with 20 mg/kg compound formulated in 5% DMSO/20% gamma-cyclodextrin or 22.5 mg/kg compound formulated in 10% DMSO/40% captisol. for 10 consecutive days. Animals were also dosed with gamma-cyclodextrin or captisol vehicle alone.

[2] = Initial pharmacokinetic studies in mice; assay type: in vivo
Procedure: Initial pharmacokinetic studies were conducted in mice to inform design of pre-clinical efficacy studies.

[3] = tested on: human and mouse leukemia cell lines; assay: Apoptosis (annexin V and propidium iodide staining) after a single treatment; assay type: cell-based
Description: Compound 1 induced death of human and mouse leukemia cell lines by apoptosis (annexin V and propidium iodide staining) within 3 days of a single treatment, indicating a cytotoxic as opposed to cytostatic effect.

[4] = tested on: cells lines with other translocations (E2A-PBX, E2A-HLF, TEL-PDGFRB); assay: Viability of human leukemia (B-ALL) cell lines, cell titer blue assay; assay type: cell-based; conditions: read-out: IC50 (half maximal inhibitory concentration)
Procedure: (§1) FIG. 3. Inhibition of human B-ALL cell lines treated with compound. Cell lines were treated with increasing concentrations of compound and assessed for viability 3 days post-treatment by cell titer blue assay.
(§2) The majority of human leukemia cell lines with MLL translocations (3/4) were inhibited more potently than non-MLL cell lines (FIG. 3); although most non-MLL cells lines (4/6) were still sensitive to the compounds. […] Compound 1 also has inhibitory effects on primary human patient ALL samples with an IC50 of 4-20 nM.

[5] = tested on: human leukemia cell lines with MLL translocations; assay: as above; assay type: cell-based; conditions: 72 h, viability 3 days post-treatment, read-out: IC50 (half maximal inhibitory concentration)
Procedure: as §1, §2

[6] = tested on: human cancer cell lines derived from 9 different tissues; assay: NCI 60-cell line screen, growth inhibition (sulforhodamine B); assay type: cell-based; conditions: colon and prostate cancer cell lines; 48 hours incubation
Procedure: FIG. 1. Mean graph representing the sensitivity of 60 human cell lines to compound 1. The vertical line at GI50 (the drug concentration resulting in a 50% growth reduction) represents the mean response to 10 μM compound 1.
FIG. 2. Growth response of human cell lines grown for 2 days in the presence of increasing concentrations of compound 1.
The compounds have broad specificity and affect human cell lines of multiple lineages. The growth inhibitory properties were analyzed in human cancer cell lines derived from 9 different tissues in the NCI 60-cell line screen. To perform this assay, cells were plated in 96-well plates and incubated overnight. After 24 hours, compounds were added to the wells and plates. Two plates of each cell line were set aside and fixed in TCA to measure the quantity of cells present at the time drug was added (time 0). The remaining plates were incubated for 48 hours. The assay was terminated by addition of TCA, and the cells were quantified by staining the cellular proteins with sulforhadamine B. The growth inhibition (GI50) was calculated by dividing the difference between treated cells at the beginning and end of the assay by the difference between untreated cells at the beginning and end of the assay.

[7] = tested on: primary human patient ALL samples; assay: Inhibition of primary human patient ALL samples; assay type: cell-based
Procedure: as §2

[8] = Preliminary toxicity studies, daily injection over 10 days; assay type: in vivo
Procedure: Preliminary toxicity studies were performed. Mice were injected (vehicle alone, 8 mg/kg, or 16 mg/kg) daily over a 10 day-period with a 2-day holiday after the first 4 days.

[9] = tested on: MV411-lucifease cell line; assay: In vitro sensitivity of MV411-luciferase cell line; assay type: cell-based, human
[10] = tested on: normal murine bone marrow progenitors; assay: Therapeutic window: human B-ALL cell lines versus normal bone marrow progenitors; assay type: cell-based, human and murine
[11] = Solubility / formulation property; assay type: physicochemical
[12] = tested on: AML cell lines induced by MLL-AF10 or MLL-AF9; assay: Effects on murine leukemia cell lines established from AMLs induced by MLL fusion oncogenes; assay type: cell-based
Procedure: Compound 1 was also tested for its effects on murine leukemia cell lines established from AMLs induced via retroviral transduction of MLL fusion oncogenes (Somervaille, T. C. & Cleary, M. L. Identification and characterization of leukemia stem cells in murine MLL-AF9 acute myeloid leukemia. Cancer Cell 10, 257-268, (2006)).

[13] = tested on: MLL leukemia cell lines (RS411-MLL-AF4; HB-MLL-ENL) and control cells (REH-TEL-AML); assay: Cell-based high-throughput phenotypic screen, cell viability by fluorescent indicator dye; set-up: species or system human; conditions: 2 days after addition of compounds
Procedure: Cell viability was assessed using a fluorescent indicator dye at 2 days after addition of compounds.

Structure (SMILES): Cc1ccc(S(=O)(=O)Cc2nc(-c3ccc(C(=O)NCc4cccnc4)cc3)oc2C)cc1 [Compound 1]
- nephrotoxicity ([1]; gamma-cyclodextrin formulation, 20 mg/kg s.c. twice a day): No nephrotoxicity was observed
- toxic side effects (histological tissue morphology, serological liver and kidney function tests) ([1]; s.c. twice a day, 20 mg/kg (5% DMSO/20% gamma-cyclodextrin) or 22.5 mg/kg (10% DMSO/40% captisol)): No toxic side effects were observed
- compound remaining in plasma ([2]; at 24 hours): almost no compound remained
- half-life ([2]; mouse, plasma, 16 mg/kg i.p. or s.c. (10% DMSO/40% captisol), 25 mg/kg i.p., s.c., oral (5% DMSO/20% gamma-cyclodextrin)): ~90 min
- absorption into plasma ([2]; single intra-peritoneal or subcutaneous injection 16 mg/kg): quickly absorbed in plasma
- kinetics of cell death: completion ([3]; after treatment): 48 h
- kinetics of cell death: initiation ([3]; after treatment): 24 h
- time to death by apoptosis ([3]; single treatment, annexin V and propidium iodide staining): ≤ 3 days
- IC50 [4]: 10 to 20 nM
- IC50 [5]: 1 to 10 nM
- growth inhibitory activity (GI50) in NCI 60-cell line screen [6]: particularly high activity
- IC50 [7]: 4 to 20 nM
- tolerability (distress, body weight reduction) ([8]; mice, 8 or 16 mg/kg daily over 10 days with 2-day holiday): All but one animal tolerated dosing
- nephrotoxicity ([8]; mice, captisol formulation, also seen in animals treated with vehicle only): Mild nephrotoxicity
- cardiotoxicity ([8]; mice, high-dose group (16 mg/kg)): Severe cardiotoxicity in one animal and mild cardiotoxicity in another animal
- MTD or lethal dose ([8]; mouse, in vivo): not achieved
- IC50 ([9]; Homo sapiens, MV411-luciferase cell line): 10 nM
- IC100 ([9]; MV411-luciferase cell line, printed with (±20 nM)): 25 nM
- effect of pre-incubation with FBS on potency ([9]; pre-incubation of compound with FBS prior to cell treatment in vitro): no effect on potency
- sensitivity of human B-ALL cells versus normal murine bone marrow progenitor cells [10]: differential sensitivity
- solubility [11]: sparingly soluble
- sensitivity of murine AML cell lines [12]: highly sensitive

Structure (SMILES): CC(=O)[C@]1(O)Cc2c(O)c3c(c(O)c2[C@@H](O[C@H]2C[C@H](N)[C@H](O)[C@H](C)O2)C1)C(=O)c1ccccc1C3=O [idarubicin, reference compound]
- cell viability in high-throughput screen [13]: reduced viability of all cell lines
- sensitivity of human B-ALL cells versus normal murine bone marrow progenitor cells [10]: overlapping potency
